From ChEMBL document CHEMBL1158183, “Use of self-organizing maps and molecular descriptors to predict the cytotoxic activity of sesquiterpene lactones” (2008)

The molecules below were run on KB (assay: Cytotoxicity against human KB cells). Details: read-out: ED50 (the source's name).
Assay type: functional

Row | Compound | EC50 [µM]
1 | C=C1C(=O)O[C@@H]2[C@H]1CC[C@H](C)[C@@H]1C[C@@H](O)C(=O)[C@@]21C | 10
2 | C=C1C(=O)O[C@H]2[C@H]1[C@H](OC(=O)/C(C)=C\C)C[C@@]1(CO1)[C@@H]1[C@H](O)[C@H]3O[C@@]3(C)[C@]21O | 0.63
3 | C=C1C(=O)O[C@@H]2C3O[C@]3(C)CC/C=C(\C)CC[C@@H]12 (some centres undefined) | 5.3
4 | C=C1C(=O)O[C@@H]2/C=C(\CO)CC/C=C(\CO)C[C@H](OC(=O)C(C)C)[C@@H]12 [ALATOLIDE] | 4
5 | C=C1C(=O)O[C@@H]2[C@H]1CC[C@H](C)[C@@H]1C=CC(=O)[C@@]21C [AMBROSIN] | 1.83
6 | C=C1C(=O)O[C@H]2C[C@@]3(CO3)[C@@H]3C[C@H](OC(C)=O)C(=C)[C@]3(O)C[C@H]12 [ARCTOLIDE] | 29
7 | C=C1C(=O)O[C@H]2C[C@@H](C)[C@@H]3C=CC(=O)[C@@]3(C)C[C@H]12 [AROMATICIN] | 1.38
8 | C=C1C(=O)O[C@H]2C/C(C)=C/C[C@@H](OC(C)=O)/C(C)=C/[C@@H](OC(C)=O)[C@@H]12 [CHAMMISSONIN DIACETATE] | 6.12
9 | C=C1C(=O)O[C@@H]2[C@H]1CC[C@H](C)[C@]1(O)CCC(=O)[C@@]21C [CORONOPILIN] | 5.49
10 | C=C1C(=O)O[C@@H]2/C=C(\C)CC/C=C(\C)CC[C@@H]12 [COSTUNOLIDE] | 2.46
11 | C=C1C(=O)O[C@H]2/C=C(\C)C(=O)C/C=C(/C)C[C@H](OC(=O)/C(C)=C\C)[C@@H]12 [DEHYDRONOBILIN] | 2.7
12 | C=C1C(=O)O[C@@H]2[C@H]3C(CO)=CC(=O)C3=C(C)CC[C@@H]12 [DEOXYLACTUCIN] | 3.1
13 | C=C1C(=O)O[C@@H]2[C@H]1[C@@H](O)C[C@H](C)[C@@H]1CCC(=O)[C@@]21C [DESACETYLCONFERTIFLORIN] | 8.71
14 | C=C1C(=O)O[C@H]2[C@H]1[C@@H](OC(=O)C=C(C)C)CC1=C[C@@H](C[C@@]3(C)O[C@H]23)OC1=O [ELEPHANTIN] | 3.22
15 | C=C1C(=O)O[C@H]2CC3=C[C@@H](C[C@]4(C)O[C@@H]4[C@@H](O)[C@H]12)OC3=O [ELEPHANTOL] | 123
16 | C=C(C)C(=O)O[C@H]1CC2=C[C@@H](C[C@@]3(C)O[C@@H]3[C@H]3OC(=O)C(=C)[C@@H]31)OC2=O [ELEPHANTOPIN] | 2.51
17 | C=C1C(=O)O[C@@H]2/C=C(/C)[C@@H](O)C[C@H]3O[C@]3(C)C[C@@H](OC(=O)/C(C)=C\C)[C@@H]12 [EPOXYNOBILIN] | 0.99
18 | C=C1[C@H](O)C[C@H](O)[C@]2(C)CC[C@@H]3[C@H](OC(=O)[C@H]3C)[C@@H]12 [ERIVANIN] | 1.1
19 | C=C1C(=O)O[C@H]2[C@H]1[C@H](OC(=O)/C(C)=C\C)C[C@](O)(CCl)[C@@H]1[C@H](OC(C)=O)C=C(C)[C@]21O [EUPACHLORIN ACETATE] | 0.35
20 | C=C1C(=O)O[C@H]2[C@H]1[C@H](OC(=O)/C(C)=C\C)C[C@](O)(CCl)[C@@H]1[C@H](O)C=C(C)[C@]21O [EUPACHLORIN] | 0.51
21 | C=C1C(=O)O[C@H]2[C@H]1[C@H](OC(=O)/C(C)=C\C)C[C@](O)(CCl)[C@@H]1[C@H](O)[C@H]3O[C@@]3(C)[C@]21O [EUPACHLOROXIN] | 8.39
22 | C=C1C(=O)O[C@@H]2/C=C(/CO)[C@@H](OC(C)=O)C[C@H](O)/C(C)=C\[C@@H](OC(=O)/C(C)=C/C)[C@@H]12 [EUPACUNOLIN] | 8.8
23 | C=C1C(=O)O[C@@H]2/C=C(/C)[C@@H](OC(C)=O)C[C@H](O)/C(C)=C\[C@@H](OC(=O)[C@]3(C)O[C@@H]3C)[C@@H]12 [EUPACUNOXIN] | 5
24 | C=C1C(=O)O[C@H]2[C@H]1[C@H](OC(=O)/C(C)=C\C)C[C@]1(CO1)[C@@H]1[C@H](OC(C)=O)C=C(C)[C@]21O [EUPAROTIN ACETATE] | 0.53
25 | C=C1C(=O)O[C@H]2[C@H]1[C@H](OC(=O)/C(C)=C/C)C[C@]1(CO1)[C@@H]1[C@H](O)C=C(C)[C@]21O [EUPAROTIN] | 0.56
26 | C=C1C(=O)O[C@@H]2/C=C(\C)[C@@H](OC(C)=O)C/C=C(/C)C(O)[C@@H](OC(=O)/C(C)=C\C)[C@@H]12 (some centres undefined) [EUPATOCUNIN] | 0.27
27 | C=C1C(=O)O[C@@H]2/C=C(\C)[C@@H](OC(C)=O)C/C=C(\C)C(OC(=O)[C@]3(C)O[C@@H]3C)C(O)[C@@H]12 (some centres undefined) [EUPATOCUNOXIN] | 4.04

Row | Compound | EC50 [µM]
28 | C=C1C(=O)O[C@@H]2/C=C(\C)CC/C=C(\C)C[C@@H](O)[C@@H]12 [EUPATOLIDE] | 5
29 | C=C1C(=O)O[C@@H]2/C=C(\C)CC/C=C(/C)C[C@@H](OC(=O)/C(=C/CO)CO)[C@@H]12 [EUPATORIOPICRIN] | 3.3
30 | C=C1C(=O)O[C@H]2[C@H]1[C@H](OC(=O)/C(C)=C\C)C[C@]1(CO1)[C@@H]1[C@H](O)[C@H]3O[C@@]3(C)[C@]21O [EUPATOROXIN] | 7.14
31 | C=C1C(=O)O[C@H]2[C@H]1[C@H](OC(=O)/C(C)=C\C)CC(=C)[C@@H]1[C@H](O)[C@H]3O[C@@]3(C)[C@@]12O [EUPATUNDIN] | 1.04
32 | C=C1C(=O)O[C@H]2C=C(C)[C@H]3[C@@H](OC(C)=O)C[C@@](C)(O)[C@@H]3C[C@H]12 [GAILLARDIN] | 7.52
33 | C=C1C(=O)O[C@@H]2C[C@@H](C)[C@@H]3C=CC(=O)[C@@]3(C)[C@@H](O)[C@H]12 [HELENALIN] | 0.76
34 | C=C1C(=O)O[C@H]2C[C@@]3(C)O[C@@H]3CC/C(C(=O)OC)=C\C[C@H]12 [HIRUSUTOLIDE] | 7
35 | C=C1CC(OC(=O)/C(C)=C/C)C2C(=C)C(=O)OC2/C=C(\C)C(O)CC1O (centres undefined) [HYDROXYISONOBILIN] | 3.7
36 | C=C1C(=O)O[C@@H]2[C@H]3C(CO)=CC(=O)C3=C(C)C[C@@H](O)[C@@H]12 [LACTUCIN] | 260
37 | C=C1C(=O)O[C@@H]2/C=C(/C)[C@@]3(O)C=C[C@@](C)(C[C@@H](OC(=O)/C(=C\C)COC(C)=O)[C@@H]12)O3 [LIATRIN] | 3.93
38 | C=C1C(=O)O[C@H]2C[C@@H](C)[C@@H]3C=CC(=O)[C@@]3(C)[C@H](OC(C)=O)[C@H]12 [LINIFOLIN A] | 2
39 | C=C1C(=O)O[C@H]2C[C@@H](C)[C@@H]3C=CC(=O)[C@@]3(C)[C@H](O)[C@H]12 [MEXICANIN I] | 1.26
40 | C=C1C(=O)O[C@@H]2[C@H]1CC[C@H](C)[C@]1(O)C=CC(=O)[C@@]21C [PARTHENIN] | 1.3
41 | C=C1C(=O)O[C@@H]2/C=C(\CO)CC/C=C(\C)C[C@H](O)[C@@H]12 [SALONITENOLIDE] | 9.1
42 | C=C1C(=O)O[C@@H]2/C=C(\C)C[C@H](O)/C=C(\C)CC[C@@H]12 [TAMAULIPIN A] | 5.08
43 | C=C1C(=O)O[C@@H]2/C=C(\C)[C@H](O)C/C=C(\C)CC[C@@H]12 [TAMAULIPIN B] | 10.5
44 | C=C[C@@]12COC(=O)C(=C)[C@@H]1[C@H]1OC(=O)C(=C)[C@@H]1[C@@H](OC(=O)C(=C)CO)C2 [VERNODALIN] | 5
45 | C=C1[C@@H]2[C@H]3OC(=O)C(=C)[C@@H]3CCC(=C)[C@H]2C[C@@H]1OC(=O)C=C(C)C [VERNOFLEXIN] | 4.3
46 | C=C1[C@@H]2[C@H]3OC(=O)C(=C)[C@@H]3CCC(=C)[C@@H]2C[C@@H]1O[C@@H]1O[C@H](COC(C)=O)[C@@H](OC(C)=O)[C@H](OC(C)=O)[C@H]1OC(C)=O [VERNOFLEXUOSIDE TETRA ACETYL] | 8.75
47 | C=C1[C@@H]2[C@H]3OC(=O)C(=C)[C@@H]3CCC(=C)[C@@H]2C[C@@H]1O[C@@H]1O[C@H](CO)[C@@H](O)[C@H](O)[C@H]1O [VERNOFLEXUOSIDE] | 19
48 | C=C[C@@]12COC(=O)C(=C)[C@@H]1[C@H]1OC(=O)C(=C)[C@@H]1[C@@H](OC(C)=O)C2 [VERNOLEPIN ACETATE] | 8.49
49 | C=C[C@@]12COC(=O)C(=C)[C@@H]1[C@H]1OC(=O)C(=C)[C@@H]1[C@@H](OC(=O)C(=C)C)C2 [VERNOLEPIN METHACRYLATE] | 1.22
50 | C=C[C@@]12COC(=O)C(=C)[C@@H]1[C@H]1OC(=O)C(=C)[C@@H]1[C@@H](O)C2 [VERNOLEPIN] | 6.52
51 | C=C[C@]12COC(=O)C(=C)[C@H]1[C@H](OC(C)=O)[C@H]1C(=C)C(=O)O[C@@H]1C2 [VERNOMENIN ACETATE] | 26.2
52 | C=C[C@@]12COC(=O)C(=C)[C@@H]1[C@@H](O)[C@@H]1C(=C)C(=O)O[C@H]1C2 [VERNOMENIN] | 127
53 | C=C1C(=O)O[C@@H]2/C=C3\CCC4OC4(C[C@H](OC(=O)C(C)C)[C@@H]12)C(O)OC3 (some centres undefined) [VERNOMYGDIN] | 4.12
54 | C=C1C(=O)O[C@H]2C[C@H](C)[C@@H]3CC(=O)C(C)=C3C[C@H]12 [XERANTOLIDE] | 6.1
